# Entries after “also recorded” stand apart in the source; their conditions may differ.
# How the values were obtained:
# [1] = tested on: H226; non-small cell lung cancer; test: SRB anti-proliferative test, H226; format: cell-based, human; details: 5 days of incubation
# Protocol: (§1) Cytoxicity of multiple release spacers 16 and 23. The anti-proliferative effect of the monomeric spacers was determined in vitro applying seven well-characterised human tumor cell lines and the microculture sulphorhodamine B (SRB) test. The anti-proliferative effects were determined and expressed as ID50 values (ng/mL), which are the (pro)drug concentrations that gave 50% inhibition of cell growth when compared to control cell growth after 5 days of incubation.
# [2] = tested on: seven well-characterised human tumor cell lines; test: Cytotoxicity in a panel of seven human tumor cell lines; format: cell-based
# Source text: Upon removal or transformation of the specifier V in the compounds or prodrugs disclosed in this invention, thus upon unmasking of B of the branched spacer or spacer system coupled to V, under physiological conditions, the reactive intemiediate(s) formed after self-elimination is (are) likely to be trapped by water, thereby regenerating molecules like aminodiol 23 and/or aminotriol 16. When a multiple release conjugate or prodrug constructed with one of the monomers disclosed in this invention is used for drug delivery purposes, the degradation products of the prodrug or (bio)conjugate after the multiple self-elimination cascade must be non-toxic (except from drugs to be released in tumor targeting approaches). Therefore, we have tested the aminotriol monomer 16 and aminodiol monomer 23 for their cytotoxicity in a panel of seven weul-characterized human tumor cell lines. Both compounds turned out to be non-toxic (see example 33).
# Cytoxicity of multiple release spacers 16 and 23. The anti-proliferative effect of the monomeric spacers was determined in vitro applying seven well-characterised human tumor cell lines and the microculture sulphorhodamine B (SRB) test. […]
# [3] = tested on: A498; renal cancer; test: SRB anti-proliferative test, A498; format: cell-based, human; details: 5 days of incubation
# Protocol: as §1
# [4] = tested on: MCF-7; breast cancer; test: SRB anti-proliferative test, MCF-7; format: cell-based, human; details: 5 days of incubation
# Protocol: as §1
# [5] = tested on: IGROV; ovarian cancer; test: SRB anti-proliferative test, IGROV; format: cell-based, human; details: 5 days of incubation
# Protocol: as §1
# [6] = tested on: M19; melanoma; test: SRB anti-proliferative test, M19; format: cell-based, human; details: 5 days of incubation
# Protocol: as §1
# [7] = tested on: EVSA-T; breast cancer; test: SRB anti-proliferative test, EVSA-T; format: cell-based, human; details: 5 days of incubation
# Protocol: as §1
# [8] = tested on: WIDR; colon cancer; test: SRB anti-proliferative test, WIDR; format: cell-based, human; details: 5 days of incubation
# Protocol: as §1
# [9] = Stability of reference compounds on treatment with zinc and acetic acid; format: physicochemical; details: zinc powder, MeOH/THF/AcOH, Rt, 16 h
# Protocol: (§2) Stability of 35. Treatment of 35 with Zinc (see FIG. 28). Dibenzyl carbonate 35 (13 mg) was dissolved in 2.5 mL MeOH/THF/AcOH (1.5/0.5/0.5). Zinc powder was added and the reaction mixture was stirred at Rt for 16 h. […] The mixture was filtered over hyflo and the residue was washed with MeOH/dichloromethane.
# as §2, with “36.” for “35.”, “36” for “35”, “Paclitaxel-2′-carbonate 36 (3” for “Dibenzyl carbonate 35 (13”, “MeOH/dichloromethane. The filtrate was concentrated in vacuo.” for “MeOH/dichloromethane.”
# [10] = Release of leaving groups upon reduction of the nitro group with zinc and acetic acid (TLC, 1H-NMR); format: physicochemical
# Protocol: (§3) Proof of principle for triple elimination. Formation of benzyl alcohol upon reduction of 13 (see FIG. 19). Compound 13 was dissolved in 3 mL of MeOH/AcOH/THF (1.5/0.5/1). Zinc powder was added and the reaction mixture was stirred at Rt. […] The mixture was filtered over hyflo and the residue was washed with MeOH/dichloromethane.
# as §3, with “phenethyl” for “benzyl”, “14” for “13”, “3.75” for “3”, “(2/0.75/1).” for “(1.5/0.5/1).”
# Reduction of the nitro group in 15. Failure of elimination of benzylamine (see FIG. 20). Compound 15 (16 mg) was dissolved in 10 mL of MeOH/AcOH (8/2). Zinc powder was added and the reaction mixture was stirred at Rt. […] The mixture was filtered over hyflo and the residue was washed with MeOH/dichloromethane. The filtrate was concentrated in vacuo, the mixture was freeze-dried. Under a number of varied circumstances (different deuterated solvent combinations, different pH (acidic, neutral, and basic), different buffers), ^1H-NMR did hardly show formation of free benzylamine. After 2 days, maximally 33 percent of free benzylamine was observed (^1H-NMR).
# Proof of principle for double elimination. Formation of paclitaxel upon reduction of 22 (see FIG. 22). Nitrocinnamyl biscarbonate 22 was dissolved in 3.5 mL of MeOH/AcOH/THF (2/0.5/1). Zinc powder was added and the reaction mixture was stirred at Rt. […] The mixture was filtered over hyflo and the residue was washed with MeOH/dichloromethane. The filtrate was concentrated in vacuo, dioxane was added and the resulting solution was freeze-dried.
# Proof of principle for quadruple elimination. Formation of paclitaxel upon reduction of 26 (see FIG. 23). Compound 26 was dissolved in 3.25 mL MeOH/AcOH/TF (1.5/0.75/1). Zinc powder was added and the reaction mixture was stirred. […] After 16 h, the mixture was filtered over hyflo and the residue was washed with MeOH/dichloromethane. […]
# [11] = zinc powder, MeOH/AcOH(/THF), Rt
compound,measurement,setting,value
Nc1ccc(C=C(CO)CO)cc1 [Compound 23],ID50,[1],0.042406 µg/mL
same,cytotoxicity,[2],non-toxic
same,ID50,[3],0.056784 µg/mL
same,ID50,[4],> 0.0625 µg/mL
same,ID50,[5],> 0.0625 µg/mL
same,ID50,[6],> 0.0625 µg/mL
same,ID50,[7],> 0.0625 µg/mL
same,ID50,[8],> 0.0625 µg/mL
"O=C(OCc1ccccc1)OCc1ccccc1 [Compound 35, Dibenzyl carbonate]","stability on treatment with zinc and acetic acid (TLC, 1H-NMR)",[9],did not show any degradation; also recorded: no formation of new compounds
O=C(NCc1ccccc1)OCc1ccc([N+](=O)[O-])cc1 [Compound 34],release of leaving groups by 1H-NMR,[10]; after reduction with zinc/acetic acid,complete release of free benzylamine
same,formation of free leaving group by thin layer chromatography,[10]; [11],formation of a substantial amount of benzylamine
same,time to disappearance of starting compound (thin layer chromatography),[10]; [11],100 min
2′-O-cinnamyloxycarbonylpaclitaxel [Compound 36],"stability on treatment with zinc and acetic acid (TLC, 1H-NMR)",[9],did not show any degradation; also recorded: no formation of new compounds

# From US7705045B2, “Prodrugs built as multiple self-elimination-release spacers” (Syntarga, B.V., priority 2003, dated 2010)
